{
  "source": "patent US20200291082A1",
  "about": "“PREVENTION AND TREATMENT OF GRAFT-VERSUS-HOST-DISEASE WITH DEFENSINS” (priority 2017, published 2020)",
  "key": {"[1]": {"system": "house dust mite model of allergic asthma", "experiment": "therapeutic intranasal versus oral hBD2 in murine house dust mite model of allergic asthma (Example 10)", "format": "in vivo, BALB/c mice", "details": "hBD2, both dosing routes"}, "[2]": {"system": "microbiota in diet-induced obese mice", "experiment": "interventional treatment of dysbiosis with defensins in diet-induced obese mice (Example 8)", "format": "in vivo", "description": "Mice and diets. The experiment elucidates the effect of hBD2 and HD5 on the microbiota in diet-induced obese mice. A run-in period of 13 weeks where mice were fed a very HFD (60% energy from fat) preceded the intervention. Only mice meeting the criteria of a minimum of 12 gram weight gain (approximately 50% of initial bodyweight) during the run-in period were included in the final analyses. […] They were exposed to all experimental tests, but excluded from the analyses.\nTreatment regimen. Before the intervention all mice were MR scanned. Cages of mice were allocated to experimental groups based on their fat mass. All subsequent measures were paired with data from the same mouse before the intervention. A LFD (low fat diet) reference group was running in parallel. As controls for the intervention 2 additional groups were included: 1 very HFD and 1 LFD. Experimental mice stayed on the very HFD during the intervention (FIG. 3). The mice were on the experimental diet for 10 weeks. They were co-housed throughout the experiment, 4 mice per cage, 3 cages per group. All tests ran over 3 days, 1 cage per group per day.\nTests. Microbial analyses were carried out to study the microbiota of the intestine.\nLongitudinal 16S characterization was conducted on 4 paired samples from 60 mice, 240 samples in total. Each mouse was sampled prior to diet change, 1 week post diet change, 4 weeks post diet change and at termination, thus ensuring a thorough characterization of the faecal microbiota as a result of defensin treatment."}, "[3]": {"system": "CD4+CD25+ Tcell transfer induced colitis", "experiment": "therapeutic murine 14 weeks CD4+CD25+ Tcell transfer induced colitis model (Example 6)", "format": "in vivo, SCID mice", "details": "hBD2 1 mg/kg s.c. OD, Dexamethasone 0.3 mg/kg i.p. OD, Enbrel 100 μg/mouse s.c. twice weekly", "description": "Efficacy of s.c. administration of hBD2 versus s.c. anti TNF-α (Enbrel) and intraperitoneal dexamethasone in a therapeutic, murine, 14 weeks, CD4+CD25+ Tcell transfer induced colitis model.\n70 female BALB/c mice housed in groups of five per cage were allocated to 7 different treatment groups. Colitis was induced in SCID mice by transplantation of CD4+CD25+ Tcells from BALB/c mice. Lymphocytes isolated from spleen and lymph nodes from BALB/c mice were subjected to negative selection of CD4+ Tcells. Afterwards, CD4+CD25+ cells were positively isolated by binding to the beads from the CD4+ Tcell suspensions and the CD4+CD25− were collected from the supernatant. The animals were treated with hBD2, 0.1 mg/kg s.c. OD; 1 mg/kg s.c. OD or 3 mg/kg s.c. OD or with mouse anti TNFα 100 μg/mouse s.c. twice weekly or with dexamethasone 0.3 mg/kg intraperitoneally OD or PBS s.c. as vehicle from day 7 and 86 consecutive days.\nClinical assessment was based on body weight loss, stool consistency and presence of blood per rectum. The animals were sacrificed on day 95 and colon removed for assessment of weight and myeloperoxidase activity."}, "[4]": {"system": "acute graft versus host disease following stem cell transplantation", "experiment": "prophylactic oral HD5 or hBD-2 in murine model of acute graft versus host disease (Example 15)", "format": "in vivo, BALB/c mice", "procedure": "To determine and assess the efficacy of prophylactic treatment with oral HD5 in a murine model of acute graft versus host disease following stem cell transplantation.\nTreatment regime: 22 female BALB/c mice were irradiated with 4.5 Gy (2×498 sec) at intervals of at least 4 hours on day 0. Bone marrow was harvested: hind limbs harvested from 2 female WT C57BL/6 mice aseptically. Skeletal muscle was removed and epiphysis cut away. Lumen of bone flushed with PBS and cells pelleted and taken up. Harvest of T-cells: spleens from 2 female WT C57BL/6 mice were meshed through a […] cell strainer into a PBS filled dish. Cells were taken up in PBS and transferred into a 50 mL falcon tube and spun down. Cells were taken up in 1 mL PBS and 20 μL of CD4 microbead+20 μL CD8 microbeads per spleen added for incubation for 20 min at 4 degrees C. Cells were washed with PBS and applied to MACS separation in order to positively select CD4+ and CD8+ cells. Positively selected T-cells were counted and taken up. Transplantation: directly after the second irradiation, all WT BALB/c recipient mice were injected with 5×1.000.000 BM cells (50 μL) i.v. into the retroorbital venous plexus under isoflurane anesthesia. 22 BALB/c mice were treated with 1.2 mg of HD5/kg BW/day; 1.2 mg of hBD-2/kg BW/day or 100 μL of PBS per day vial oral gavage from day 0-10.\nSurvival was monitored for 60 days."}, "[5]": {"system": "gut microbiota in high fat diet murine model", "experiment": "prophylactic treatment with defensins in murine high fat diet model, gut microbiota (Example 7)", "format": "in vivo, mice", "description": "Protection and preservation of gut microbiota by prophylactic treatment with defensins. Mice: Mice were housed in trios, 4 cages per group. Feed intake was registered daily just before lights were turned off at 6 pm. Individual mice were subjected to experimental procedures in altered order both group and cage wise. Mice were kept at room temperature under a 12-hour light/dark cycle at SPF standard conditions. Diets: For dosing, the average weight was estimated to be 25 grams per mouse. Mice eat approximately 3 grams of feed per mouse per day. Treatment regime: Mice were fed either a high fat diet (HFD) or a low fat (LF) control diet. The HFD contained 4 subgroups; 1 hBD2, 1 HD5, 1 hBD2/HD5 and 1 standard HFD without supplementation of defensins (FIG. 3). Defensin concentration was 1,2 mg hBD2 per kg mouse per day. HD5 was given in equimolar concentration to hBD2. […] Microbial analyses were carried out to study the microbiota of the intestine. Longitudinal 16S characterization was conducted on 4 paired samples from 60 mice, 240 samples in total. Each mouse was sampled prior to diet change, 1 week post diet change, 4 weeks post diet change and at termination, thus ensuring a thorough characterization of the faecal microbiota as a result of defensin treatment."}, "[6]": {"details": "colon, prophylactic treatment with hBD2"}},
  "note": "Entries after “also recorded” stand apart in the source; their conditions may differ. No end group written: not given here.",
  "data": [
    {"substance": "human beta defensin 2 (GIGDPVTCLKSGAICHPVFCPRRYKQIGTCGLPGTKCCKKP; not fully specified (bridges); ends and bridges not checked; listed as Homo sapiens) [hBD2]", "values": [
      {"measurement": "IL-4 level in lung tissue homogenates", "setting": "[1]", "result": "significant effects"},
      {"measurement": "IL-5 level in lung tissue homogenates", "setting": "[1]", "result": "significant effects"},
      {"measurement": "weight gain", "setting": "[2]; HFD plus hBD2, first 4 weeks post dietary intervention, versus standard HFD", "result": "tended to gain less weight"},
      {"measurement": "weight gain", "setting": "[2]; HFD plus hBD2, week 4 to end of study period", "result": "gained similar weight as the standard HFD group"},
      {"measurement": "abundance of Alloprevotella", "setting": "[2]; colon", "result": "no influence on Alloprevotella abundance"},
      {"measurement": "relative abundance of Bifidobacteriaceae", "setting": "[2]; colon", "result": "dramatically and statistically significant increased"},
      {"measurement": "relative abundance of Bifidobacteriaceae", "setting": "[2]; small intestine", "result": "dramatically and statistically significant increased"},
      {"measurement": "myeloperoxidase activity", "setting": "[3]; colon, day 95", "result": "statistically significant and similar effect; also recorded: on par with 100 μg/mouse anti TNF-α s.c. twice weekly (Enbrel) and 0.3 mg/kg dexamethasone intraperitoneally OD"},
      {"measurement": "clinical score (body weight loss, stool consistency, presence of blood per rectum)", "setting": "[3]", "result": "statistically significant and similar effect on clinical score; also recorded: on par with 100 μg/mouse anti TNF-α s.c. twice weekly (Enbrel) and 0.3 mg/kg dexamethasone intraperitoneally OD"},
      {"measurement": "colon weight", "setting": "[3]; day 95", "result": "statistically significant and similar effect on colon weight; also recorded: on par with 100 μg/mouse anti TNF-α s.c. twice weekly (Enbrel) and 0.3 mg/kg dexamethasone intraperitoneally OD"},
      {"measurement": "mortality", "setting": "[4]; FIG. 58, oral treatment for 10 days from day of stem cell transplantation", "result": "significant reduction of mortality"},
      {"measurement": "treated animals that had died by day 60", "setting": "[4]; oral 1.2 mg/kg/day day 0-10, six out of eight PBS mice died", "result": "none"},
      {"measurement": "weight gain", "setting": "[5]; HFD plus hBD2 (1,2 mg per kg per day) versus HFD reference group, 10 week study period", "result": "gained significantly less weight"},
      {"measurement": "abundance of Barnesiella", "setting": "[5]; [6]", "result": "statistically significant increase in abundance of Barnesiella"},
      {"measurement": "abundance of Lactobacillaceae", "setting": "[5]; [6]", "result": "trend towards lower abundance"},
      {"measurement": "steatosis (intra hepatocytic fat accumulation)", "setting": "[5]; liver, HFD mice with prophylactic oral hBD-2 1.2 mg/kg daily, 1.2 mg/kg", "result": "minimal intra hepatocyte fat accumulation; also recorded: minimal steatosis"},
      {"measurement": "microbial presence and abundance (unifrac analysis)", "setting": "[5]; prophylactic oral defensins in high fat diet", "result": "affected primarily the microbial presence"}
    ]}
  ]
}
